# Earlier results, collected in US20210213129A1, “NON-PSYCHOACTIVE CANNABINOIDS AS ADJUVANTS TO ENHANCE MUCOSAL IMMUNITY” (Immugen Pharma LLC, priority 2014, published 2021).
# Tests used:
# [1] = test system: B-cells; conditions: cultured B-cells, co-stimulation with IL-4 and anti-CD40
# [2] = test system: virgin and GC B cells
# [3] = test system: macrophages; conditions: macrophages activated by LPS or TMEV
# [4] = test system: B cells; conditions: selective CB1 antagonist added
# [5] = test system: T cells; conditions: mixed lymphocyte reaction and highly purified T cells
# [6] = test system: T cells; conditions: T cells stimulated by allogeneic dendritic cells or anti-CD3/anti-CD28
# [7] = test system: GATA3; IL12Rβ2; conditions: mice, after Legionella challenge
smiles,measurement,setting,value
CCCCCCC(C)(C)c1ccc([C@@H]2C[C@H](O)CC[C@H]2CCCO)c(O)c1 [CP55940],increased IgE expression,[1],40-60%
same,proliferation of B-cell subsets,[2]; in the absence of CD40 MoAbs,incapable of inducing any proliferation
CCCC(C)(C)c1ccc2c(c1)OC(C)(C)[C@@H]1CC=C(C)C[C@@H]21 [JWH-133],IL-12p40,[3],downregulated
Cc1c(C(=O)NN2CCCCC2)nn(-c2ccc(Cl)cc2Cl)c1-c1ccc(Cl)cc1 [SR141716A],block of CB2 receptor mRNA expression and of the B-cell enhancing effects of the drug,[4],did not block
Cc1ccc(Cn2nc(C(=O)NC3C4(C)CCC(C4)C3(C)C)cc2-c2ccc(Cl)c(C)c2)cc1 (centres unmarked) [SR 144528A],"proliferative response of virgin and GC B cells by CP55,940","[2]; selective CB2 receptor antagonist against agonist CP55,940",inhibited
"CCCCCc1cc(O)c2c(c1)OC(C)(C)[C@@H]1CCC(C)=C[C@@H]21 [THC, tetrahydrocannabinol]","Th1 cytokines Il-2, IFN-γ and Il-12",[5]; CB1 mediated,downregulation
same,IL-4 and Il-5,[5]; CB2 mediated,upregulation
same,"IL-4, % of diluent control levels",[6]; of diluent control levels,105±11%
same,decrease of INF-γ,[6]; p<0.05,51±18%
same,TH2 biasing factor GATA3,[7]; CB2 mechanism,upregulation
same,"IL12Rβ2, a marker of TH1 polarization",[7]; mediated by CB1 receptor,downregulation
